Laboratory results taken from PubChem BioAssay AID256 (DTP/NCI, 2004).
Values joined by “and” are separate entries in the source; they are usually repeats but may differ in a detail not shown here. Equal values may be shown once. Inconclusive results and toxic doses are left out.

Tested on: CD2F1 mice, L1210 leukemia ip, survival T/C
Experiment: NCI In Vivo Anticancer Drug Screen. Data for tumor model L1210 Leukemia (intraperitoneal) in CD2F1 (CDF1) mice
Settings: higher = longer survival
Method in brief: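 In this screen, transplantable tumors were grown in mice given either the compound or its vehicle. Results were expressed as the treated measurement relative to the control measurement.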

[1] = endpoint: mean survival time, dose: 100.0 mg/kg/injection, schedule: Q01DX009 (ip), vehicle: saline with Tween-80
[2] = endpoint: mean survival time, dose: 100.0 mg/kg/injection, schedule: Q04DX003 (ip), vehicle: saline with Tween-80
[3] = endpoint: mean survival time, dose: 200.0 mg/kg/injection, schedule: Q01DX009 (ip), vehicle: saline with Tween-80
[4] = endpoint: mean survival time, dose: 200.0 mg/kg/injection, schedule: Q04DX003 (ip), vehicle: saline with Tween-80
[5] = endpoint: mean survival time, dose: 400.0 mg/kg/injection, schedule: Q04DX003 (ip), vehicle: saline with Tween-80
[6] = endpoint: mean survival time, dose: 100.0 mg/kg/injection, schedule: Q01DX001 (ip), vehicle: saline with Tween-80
[7] = endpoint: mean survival time, dose: 200.0 mg/kg/injection, schedule: Q01DX001 (ip), vehicle: saline with Tween-80
[8] = endpoint: mean survival time, dose: 400.0 mg/kg/injection, schedule: Q01DX001 (ip), vehicle: saline with Tween-80
[9] = endpoint: mean survival time, dose: 100.0 mg/kg/injection, schedule: Q04DX002 (ip), vehicle: other
[10] = endpoint: mean survival time, dose: 200.0 mg/kg/injection, schedule: Q04DX002 (ip), vehicle: other
[11] = endpoint: mean survival time, dose: 400.0 mg/kg/injection, schedule: Q04DX002 (ip), vehicle: other
[12] = endpoint: mean survival time, dose: 12.5 mg/kg/injection, schedule: Q01DX009 (ip), vehicle: saline with Tween-80
[13] = endpoint: mean survival time, dose: 25.0 mg/kg/injection, schedule: Q01DX009 (ip), vehicle: saline with Tween-80
[14] = endpoint: mean survival time, dose: 50.0 mg/kg/injection, schedule: Q01DX009 (ip), vehicle: saline with Tween-80
[15] = endpoint: mean survival time, dose: 400.0 mg/kg/injection, schedule: Q01DX009 (ip), vehicle: saline with Tween-80
[16] = endpoint: mean survival time, dose: 100.0 mg/kg/injection, schedule: Q04DX003 (ip), vehicle: saline
[17] = endpoint: mean survival time, dose: 200.0 mg/kg/injection, schedule: Q04DX003 (ip), vehicle: saline
[18] = endpoint: mean survival time, dose: 400.0 mg/kg/injection, schedule: Q04DX003 (ip), vehicle: saline

## CCC(C(=O)O)c1ccccc1 (configuration not stated)
endpoint: mean survival time, dose: 100.0 mg/kg/injection, schedule: Q04DX003 (ip), vehicle: saline sonified
  T/C: 97 % of control
endpoint: mean survival time, dose: 200.0 mg/kg/injection, schedule: Q04DX003 (ip), vehicle: saline sonified
  T/C: 101 % of control

## O=C(NN=C1CCCCC1)c1ccccc1
[1]
  T/C: 100 % of control
[2]
  T/C: 97 % of control
[3]
  T/C: 100 % of control
[4]
  T/C: 100 % of control
[5]
  T/C: 101 % of control

## CC1=CC(C)N(C(=O)c2ccc(Cl)cc2)CCN1C(=O)c1ccc(Cl)cc1 (configuration not stated)
[2]
  T/C: 98 % of control
[4]
  T/C: 102 % of control
[5]
  T/C: 102 % of control

## COc1ccc(/C=C2\Oc3cc(O)ccc3C2=O)cc1O
[6]
  T/C: 96 % of control
[7]
  T/C: 94 % of control
[8]
  T/C: 91 % of control

## Cc1ccc(C2=CSc3ccccc3N2)c(C)c1
[9]
  T/C: 96 % of control
[10]
  T/C: 100 % of control
[11]
  T/C: 100 % of control

## CN1C(=O)NC(c2ccc(Cl)cc2)(c2ccc(Cl)cc2)C1=O
endpoint: mean survival time, dose: 12.5 mg/kg/injection, schedule: Q01DX009 (ip), vehicle: distilled water + Tween-80
  T/C: 93 % of control
[12]
  T/C: 97 % of control
endpoint: mean survival time, dose: 25.0 mg/kg/injection, schedule: Q01DX009 (ip), vehicle: distilled water + Tween-80
  T/C: 95 % of control
[13]
  T/C: 101 % of control
endpoint: mean survival time, dose: 50.0 mg/kg/injection, schedule: Q01DX009 (ip), vehicle: distilled water + Tween-80
  T/C: 103 % of control
[14]
  T/C: 101 % of control
endpoint: mean survival time, dose: 100.0 mg/kg/injection, schedule: Q01DX009 (ip), vehicle: distilled water + Tween-80
  T/C: 98 % of control
[1]
  T/C: 89 % of control
endpoint: mean survival time, dose: 200.0 mg/kg/injection, schedule: Q01DX009 (ip), vehicle: distilled water + Tween-80
  T/C: 98 % of control
[3]
  T/C: 91 % of control

## CCCCCNC(=O)CCC(NC(=O)c1ccc(N(C)Cc2cnc3nc(N)nc(N)c3n2)cc1)C(=O)O (configuration not stated)
endpoint: mean survival time, dose: 1.0 mg/kg/injection, schedule: Q01DX009 (ip), vehicle: sodium bicarbonate
  T/C: 107 % of control
endpoint: mean survival time, dose: 10.0 mg/kg/injection, schedule: Q01DX009 (ip), vehicle: sodium bicarbonate
  T/C: 118 % of control
endpoint: mean survival time, dose: 50.0 mg/kg/injection, schedule: Q01DX009 (ip), vehicle: sodium bicarbonate
  T/C: 122 % of control
endpoint: mean survival time, dose: 200.0 mg/kg/injection, schedule: Q01DX009 (ip), vehicle: sodium bicarbonate
  T/C: 152 % of control
endpoint: mean survival time, dose: 400.0 mg/kg/injection, schedule: Q01DX009 (ip), vehicle: sodium bicarbonate
  T/C: 164 % of control

## CCOC(=O)CCC(C#N)(CC(=O)OCC)C(=O)OCC (configuration not stated)
[6]
  T/C: 96 % of control
[7]
  T/C: 104 % of control
[8]
  T/C: 104 % of control

## O=C(O)C1Cc2nc[nH]c2CN1CO (configuration not stated)
[12]
  T/C: 100 % of control
[13]
  T/C: 100 % of control and 102 % of control
[14]
  T/C: 100 % of control
[1]
  T/C: 104 % of control and 109 % of control
[3]
  T/C: 108 % of control
[15]
  T/C: 108 % of control and 109 % of control

## O=C1C2C3CCC(CC3)C2C(=O)C2C3CCC(C3)C12 (configuration not stated)
[2]
  T/C: 100 % of control
[4]
  T/C: 92 % of control
[5]
  T/C: 88 % of control

## COCCOCCOCCOCCOCCOCCOCCOC(=O)Nc1ccc(C)c(NC(=O)OCCOCCOCCOCCOCCOCCOCCOC)c1
endpoint: mean survival time, dose: 100.0 mg/kg/injection, schedule: Q01DX009 (ip), vehicle: saline sonified
  T/C: 96 % of control
[16]
  T/C: 96 % of control
endpoint: mean survival time, dose: 200.0 mg/kg/injection, schedule: Q01DX009 (ip), vehicle: saline sonified
  T/C: 96 % of control
[17]
  T/C: 100 % of control
endpoint: mean survival time, dose: 400.0 mg/kg/injection, schedule: Q01DX009 (ip), vehicle: saline sonified
  T/C: 93 % of control
[18]
  T/C: 100 % of control

## Cc1noc(N)c1N
endpoint: median survival time, dose: 12.5 mg/kg/injection, schedule: Q01DX009 (ip), vehicle: water
  T/C: 98 % of control
endpoint: median survival time, dose: 25.0 mg/kg/injection, schedule: Q01DX009 (ip), vehicle: water
  T/C: 100 % of control
endpoint: median survival time, dose: 50.0 mg/kg/injection, schedule: Q01DX009 (ip), vehicle: water
  T/C: 100 % of control
endpoint: median survival time, dose: 100.0 mg/kg/injection, schedule: Q01DX009 (ip), vehicle: water
  T/C: 113 % of control and 104 % of control and 110 % of control
endpoint: median survival time, dose: 150.0 mg/kg/injection, schedule: Q01DX009 (ip), vehicle: water
  T/C: 109 % of control

## COc1cc(OC)c(OC)cc1/C=C/c1ccc2ccccc2n1
[2]
  T/C: 92 % of control
[4]
  T/C: 96 % of control
[5]
  T/C: 96 % of control

## CN=C(NC)S(=O)O
endpoint: mean survival time, dose: 100.0 mg/kg/injection, schedule: Q01DX009 (ip), vehicle: saline
  T/C: 97 % of control
endpoint: mean survival time, dose: 200.0 mg/kg/injection, schedule: Q01DX009 (ip), vehicle: saline
  T/C: 97 % of control
endpoint: mean survival time, dose: 400.0 mg/kg/injection, schedule: Q01DX009 (ip), vehicle: saline
  T/C: 101 % of control

## CCOC(=O)c1sc(=S)[nH]c1C
[3]
  T/C: 89 % of control
[15]
  T/C: 87 % of control

## O=C(NNc1ccccc1OCc1ccccc1)C(F)(F)F
[2]
  T/C: 102 % of control
[4]
  T/C: 103 % of control
[5]
  T/C: 103 % of control

## OC1(Cc2ccccc2)CCCCCC1
[9]
  T/C: 95 % of control
[10]
  T/C: 92 % of control
[11]
  T/C: 92 % of control

## Cc1nc(C)c2c(n1)Oc1ccc3ccccc3c1C2
endpoint: mean survival time, dose: 100.0 mg/kg/injection, schedule: Q01DX001 (ip), vehicle: saline
  T/C: 97 % of control
endpoint: mean survival time, dose: 200.0 mg/kg/injection, schedule: Q01DX001 (ip), vehicle: saline
  T/C: 97 % of control
endpoint: mean survival time, dose: 400.0 mg/kg/injection, schedule: Q01DX001 (ip), vehicle: saline
  T/C: 97 % of control

## O=C(CNCc1ccccc1)c1ccccc1
[2]
  T/C: 94 % of control
[4]
  T/C: 96 % of control
[5]
  T/C: 93 % of control

## C/C=C/CC1(Cc2ccccc2)C(=O)NC(=S)NC1=O
endpoint: mean survival time, dose: 9.5 mg/kg/injection, schedule: Q01DX001 (ip), vehicle: other
  T/C: 108 % of control
endpoint: mean survival time, dose: 19.0 mg/kg/injection, schedule: Q01DX001 (ip), vehicle: other
  T/C: 111 % of control

## O=C(NC(=S)Nc1cc(Cl)ccc1O)c1cccc(Br)c1
[6]
  T/C: 86 % of control and 89 % of control
[1]
  T/C: 96 % of control and 101 % of control
endpoint: mean survival time, dose: 100.0 mg/kg/injection, schedule: Q04DX002 (ip), vehicle: saline with Tween-80
  T/C: 89 % of control and 103 % of control
[2]
  T/C: 91 % of control
[7]
  T/C: 86 % of control
[3]
  T/C: 97 % of control and 98 % of control
endpoint: mean survival time, dose: 200.0 mg/kg/injection, schedule: Q04DX002 (ip), vehicle: saline with Tween-80
  T/C: 89 % of control and 100 % of control
[4]
  T/C: 96 % of control
[8]
  T/C: 86 % of control
[15]
  T/C: 116 % of control and 101 % of control
endpoint: mean survival time, dose: 400.0 mg/kg/injection, schedule: Q04DX002 (ip), vehicle: saline with Tween-80
  T/C: 94 % of control and 95 % of control
[5]
  T/C: 95 % of control

## O=C(Cl)OC1CS(=O)(=O)CC1O (configuration not stated)
[2]
  T/C: 98 % of control
[4]
  T/C: 98 % of control
[5]
  T/C: 101 % of control

## C[C@]12CCC(=O)C(O)=C1CC[C@@H]1[C@@H]2CC[C@]2(C)C(=O)CC[C@@H]12
endpoint: mean survival time, dose: 12.5 mg/kg/injection, schedule: Q01DX009 (ip), vehicle: Klucel (hydroxypropylcellulose) (HPC)
  T/C: 103 % of control
endpoint: mean survival time, dose: 25.0 mg/kg/injection, schedule: Q01DX009 (ip), vehicle: Klucel (hydroxypropylcellulose) (HPC)
  T/C: 97 % of control
endpoint: mean survival time, dose: 50.0 mg/kg/injection, schedule: Q01DX009 (ip), vehicle: Klucel (hydroxypropylcellulose) (HPC)
  T/C: 104 % of control
endpoint: mean survival time, dose: 100.0 mg/kg/injection, schedule: Q01DX009 (ip), vehicle: Klucel (hydroxypropylcellulose) (HPC)
  T/C: 98 % of control
endpoint: mean survival time, dose: 200.0 mg/kg/injection, schedule: Q01DX009 (ip), vehicle: Klucel (hydroxypropylcellulose) (HPC)
  T/C: 91 % of control
endpoint: mean survival time, dose: 400.0 mg/kg/injection, schedule: Q01DX009 (ip), vehicle: Klucel (hydroxypropylcellulose) (HPC)
  T/C: 97 % of control

## NNC(=O)c1ccc(Cl)cc1Cl
endpoint: mean survival time, dose: 6.25 mg/kg/injection, schedule: Q04DX003 (ip), vehicle: saline with Tween-80
  T/C: 97 % of control
endpoint: mean survival time, dose: 12.5 mg/kg/injection, schedule: Q04DX003 (ip), vehicle: saline with Tween-80
  T/C: 101 % of control
endpoint: mean survival time, dose: 25.0 mg/kg/injection, schedule: Q04DX003 (ip), vehicle: saline with Tween-80
  T/C: 103 % of control

## OCC(F)(F)C(F)(F)C(F)(F)CO
[16]
  T/C: 101 % of control
[17]
  T/C: 107 % of control
[18]
  T/C: 104 % of control

## O=C(O)/C(O)=C(/O)C(=O)O.[NH-]C1CCCCC1[NH-].[Pt+2]
endpoint: median survival time, dose: 3.12 mg/kg/injection, schedule: Q04DX003 (ip), vehicle: saline
  T/C: 97 % of control
endpoint: median survival time, dose: 25.0 mg/kg/injection, schedule: Q04DX003 (ip), vehicle: saline
  T/C: 113 % of control and 202 % of control
endpoint: median survival time, dose: 50.0 mg/kg/injection, schedule: Q04DX003 (ip), vehicle: saline
  T/C: 337 % of control
endpoint: median survival time, dose: 200.0 mg/kg/injection, schedule: Q04DX003 (ip), vehicle: saline
  T/C: 184 % of control
